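Exposure lasted 48 hours, with cells grown in 96-well plates and compounds tested at five concentrations. GI50 is the concentration that inhibits growth by half.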 The source made the active and inactive calls. Cut-off read from the data, not from the text of the source: active = GI50 up to about 1.1 µM and inactive = higher.

The text below walks through data of ChEMBL document CHEMBL1201862, “PubChem BioAssay data set” (2004).

Some test systems named below: SK-OV-3; NCI/ADR-RES; U-251; HL-60; SK-MEL-28; NCI-H23; SNB-75; MDA-MB-435; TK-10; MOLT-4; DU-145; HOP-62; SF-268; HCC 2998; SF-539; HCT-116; SK-MEL-2; CAKI-1; RPMI-8226; Malme-3M.
Common to all, as to assay: NCI anticancer screen, dose series, 48 h

Regarding `Cn1c(=O)c2c(nc3sc4ncccc4c(=O)n32)n(C)c1=O`, the GI50 in the test on SK-OV-3, with NCI/ADR-RES, in the test with U-251, in the test on HL-60, in the test with SK-MEL-28 and in the test with NCI-H23 was > 100 µM (inactive) each time. The GI50 in the test on SNB-75, in the test with MDA-MB-435, with TK-10, in the test with MOLT-4, in the test on DU-145 and in the test on HOP-62 was > 100 µM (inactive) in each case. Moreover, the GI50 in the test on SF-268, with HCC 2998, in the test on SF-539, in the test with HCT-116, in the test on SK-MEL-2 and in the test with CAKI-1 was > 100 µM (inactive) in each case. For the same compound, the GI50 in the test on RPMI-8226 is > 100 µM (inactive).
As to `CCCCc1c2c(nc3c1CCC/C3=C\c1ccccc1)C(=O)C(CN(C)C)CC2` (stereo not drawn), the GI50 in the test with SK-OV-3 was 18.5 µM (inactive); in the test with NCI/ADR-RES, 29.3 µM (inactive); in the test with U-251, 16.6 µM (inactive); in the test with HL-60 it was 2.67 µM (inactive); with SK-MEL-28, 14.8 µM (inactive); in the test on NCI-H23 it was 16.5 µM (inactive). Further, the GI50 with SNB-75 is 18.1 µM (inactive); with MDA-MB-435 it was 17.2 µM (inactive); in the test on TK-10, 15.7 µM (inactive); in the test with MOLT-4 it was 2.86 µM (inactive); with DU-145, 15.6 µM (inactive); in the test on HOP-62, 16.5 µM (inactive). For the same compound, the GI50 in the test on Malme-3M was 22.1 µM (inactive); in the test on SF-268, 16.2 µM (inactive); in the test with HCC 2998, 28 µM (inactive); in the test with SF-539, 20.7 µM (inactive); in the test with HCT-116, 16 µM (inactive); in the test on SK-MEL-2, 20.2 µM (inactive). For the same compound, the GI50 in the test with RPMI-8226 is 4.17 µM (inactive).
As for `COc1cc2cc(C(=O)N3CC(CCl)c4ccc([N+](=O)[O-])cc43)[nH]c2c(OC)c1OC` (stereo not drawn), the GI50 in the test on NCI/ADR-RES, in the test with U-251, with HL-60, with SK-MEL-28, in the test on NCI-H23 and with SNB-75 was > 100 µM (inactive) throughout. Further, the GI50 in the test on MDA-MB-435, in the test with TK-10, in the test with MOLT-4, with DU-145, in the test on HOP-62 and in the test with Malme-3M was > 100 µM (inactive) in each case. Also, the GI50 in the test with SF-268, in the test with HCC 2998, in the test with SF-539, with HCT-116, in the test with SK-MEL-2 and with CAKI-1 was > 100 µM (inactive) in each case. The GI50 in the test with RPMI-8226 is > 100 µM (inactive).
Take `O=c1[nH]nc(Cc2ccccc2)n1/N=C/c1ccncc1`: the GI50 in the test with NCI/ADR-RES, in the test on U-251, in the test with HL-60, with SK-MEL-28, with NCI-H23 and with SNB-75 was > 100 µM (inactive) each time. Besides, the GI50 was > 100 µM (inactive) in the test on MDA-MB-435; > 100 µM (inactive) with TK-10; > 100 µM (inactive) with MOLT-4; > 100 µM (inactive) in the test with DU-145; 48.2 µM (inactive) in the test with HOP-62; > 100 µM (inactive) in the test with Malme-3M. The GI50 in the test on SF-268 is > 100 µM (inactive); with HCC 2998, > 100 µM (inactive); in the test on SF-539 it was > 100 µM (inactive); in the test with HCT-116, > 100 µM (inactive); in the test on CAKI-1, 42.2 µM (inactive); in the test on RPMI-8226, > 100 µM (inactive).
With `CNc1ccc(C)cc1S(=O)(=O)c1ccccc1[N+](=O)[O-]`, the GI50 with SK-OV-3 is 91 µM (inactive); with NCI/ADR-RES, 42.3 µM (inactive); in the test with U-251 it was 57.7 µM (inactive); with HL-60 it was > 10 µM (inactive); in the test with SK-MEL-28, 38.8 µM (inactive); in the test with NCI-H23, 63 µM (inactive). Besides, the GI50 was 43.3 µM (inactive) in the test with SNB-75; 25.5 µM (inactive) with MDA-MB-435; 99.3 µM (inactive) in the test with TK-10; 18.4 µM (inactive) in the test with MOLT-4; > 100 µM (inactive) in the test with DU-145; 58.9 µM (inactive) in the test on HOP-62. The GI50 in the test with Malme-3M is 60.3 µM (inactive); in the test on SF-268 it was 53 µM (inactive); in the test on HCC 2998, 92.5 µM (inactive); with SF-539, > 100 µM (inactive); in the test on HCT-116, 48.4 µM (inactive); with SK-MEL-2, 62.4 µM (inactive). Besides, the GI50 in the test on RPMI-8226 is 49.4 µM (inactive).
With `CS(=O)(=O)Nc1ccc2c(c1)oc(=O)c1ccccc12`, the GI50 with NCI/ADR-RES, in the test with U-251, in the test on HL-60, in the test with SK-MEL-28, in the test with NCI-H23 and in the test with SNB-75 was > 100 µM (inactive) each time. Also, the GI50 in the test on MDA-MB-435 was > 100 µM (inactive); in the test on MOLT-4, > 100 µM (inactive); in the test on DU-145 it was > 100 µM (inactive); with HOP-62, > 100 µM (inactive); in the test on Malme-3M it was > 100 µM (inactive); in the test with SF-268, 13.3 µM (inactive). Also, the GI50 in the test on HCC 2998, with SF-539, with HCT-116, in the test on SK-MEL-2, with CAKI-1 and with RPMI-8226 was > 100 µM (inactive) throughout.
On to `CN1CCN(c2cc3nc4cc(O)cc(O)c4c(O)c3cc2N)CC1`, for which the GI50 is 57.5 µM (inactive) in the test with NCI/ADR-RES; 17.6 µM (inactive) in the test on U-251; 20.1 µM (inactive) with HL-60; 27.2 µM (inactive) in the test on SK-MEL-28; 40.6 µM (inactive) in the test with NCI-H23; 18.2 µM (inactive) with SNB-75. The GI50 in the test on MDA-MB-435 is 18.1 µM (inactive); in the test on TK-10, 30.7 µM (inactive); with MOLT-4, 0.33 µM (active); in the test on DU-145 it was 46.5 µM (inactive); in the test on HOP-62, 33.6 µM (inactive); with Malme-3M it was 24.6 µM (inactive). The GI50 with SF-268 is 15.9 µM (inactive); in the test on HCC 2998, 16.2 µM (inactive); with SF-539, 0.608 µM (active); in the test with HCT-116, 35.8 µM (inactive); with SK-MEL-2, 19.4 µM (inactive); in the test on CAKI-1, 23.3 µM (inactive). The GI50 in the test on RPMI-8226 was 20.8 µM (inactive).
On to `CCOC(=O)CCCc1cc(O)c2c(C)c3[nH]c4ccc(Cl)cc4c3c(C)c2n1`, for which the GI50 was 23.4 µM (inactive) in the test with NCI/ADR-RES; 22.9 µM (inactive) in the test with U-251; 24 µM (inactive) with HL-60; 28.3 µM (inactive) in the test on SK-MEL-28; 50.2 µM (inactive) with NCI-H23; 25.9 µM (inactive) in the test with SNB-75. The GI50 with MDA-MB-435 is 18.5 µM (inactive); in the test with TK-10 it was 21.1 µM (inactive); in the test with MOLT-4, 49.8 µM (inactive); with DU-145, 23.8 µM (inactive); in the test on HOP-62 it was 20.7 µM (inactive); in the test with Malme-3M it was 24 µM (inactive). For the same compound, the GI50 is 26.2 µM (inactive) in the test with SF-268; 44.4 µM (inactive) in the test on HCC 2998; 14.6 µM (inactive) in the test with SF-539; 34.8 µM (inactive) in the test with HCT-116; 26.9 µM (inactive) in the test with SK-MEL-2; 24.9 µM (inactive) in the test on CAKI-1. Besides, the GI50 with RPMI-8226 is 32.6 µM (inactive).
Consider `Cn1c(-c2ccccc2)cc(-c2ccsc2)c1-c1ccsc1`, for which the GI50 is 95.7 µM (inactive) in the test with SK-OV-3; > 100 µM (inactive) in the test on NCI/ADR-RES; > 100 µM (inactive) in the test with U-251; 53.2 µM (inactive) with HL-60; > 100 µM (inactive) in the test on SK-MEL-28; > 100 µM (inactive) in the test with NCI-H23. Moreover, the GI50 is > 100 µM (inactive) in the test with SNB-75; > 100 µM (inactive) in the test on MDA-MB-435; > 100 µM (inactive) in the test with TK-10; > 100 µM (inactive) in the test on MOLT-4; > 100 µM (inactive) in the test with DU-145; 49.5 µM (inactive) in the test on HOP-62. Besides, the GI50 with SF-268 is > 100 µM (inactive); in the test with HCC 2998 it was > 100 µM (inactive); in the test with SF-539 it was 95.5 µM (inactive); in the test on HCT-116, 55.5 µM (inactive); with SK-MEL-2 it was > 100 µM (inactive); in the test with CAKI-1, > 100 µM (inactive). Besides, the GI50 in the test with RPMI-8226 was > 100 µM (inactive).
Turning to `CN(C)CCNC(=O)c1cccc2nc3cccc(F)c3nc12`, the GI50 was 1.39 µM (inactive) in the test on NCI/ADR-RES; 1.38 µM (inactive) with U-251; 1.48 µM (inactive) in the test with HL-60; 3.01 µM (inactive) in the test with SK-MEL-28; 1.5 µM (inactive) with NCI-H23; 2.62 µM (inactive) in the test with SNB-75. Also, the GI50 with MDA-MB-435 is 1.56 µM (inactive); with TK-10, 2 µM (inactive); with MOLT-4 it was 0.366 µM (active); in the test on DU-145 it was 2.47 µM (inactive); in the test on HOP-62, 1.97 µM (inactive); with Malme-3M it was 2.04 µM (inactive). In addition, the GI50 in the test on SF-268 is 2.31 µM (inactive); in the test on HCC 2998 it was 1.49 µM (inactive); with SF-539 it was 1.86 µM (inactive); with HCT-116 it was 0.542 µM (active); in the test with SK-MEL-2, 2.13 µM (inactive); with CAKI-1 it was 0.973 µM (active). For the same compound, the GI50 in the test with RPMI-8226 is 0.8 µM (active).
